Experimental data published in patent publication US20260347364A1, “PYRAZOLO[4,3-F]QUINAZOLINE DERIVATIVES AS MODULATORS OF G12D MUTANT KRAS USEFUL FOR THE TREATMENT OF CANCER” (JAZZ PHARMACEUTICALS IRELAND LTD., priority 2023, published 2026).

Assays:
KRAS WT = target: T1, KRAS WT (Homo sapiens, UniProt P01116); test: HTRF nucleotide exchange assay, KRAS WT; format: biochemical; details: class symbols; for IC50: HTRF nucleotide exchange assay (NEA)
T1 construct: aa1-188 KRAS WT

KRAS G12D = target: T2, KRAS G12D (Homo sapiens, UniProt P01116, G12D); test: HTRF nucleotide exchange assay, KRAS G12D; format: biochemical; details: class symbols; for IC50: HTRF nucleotide exchange assay (NEA)
T2 construct: aa1-188 KRAS WT, HRAS WT, NRAS WT, or KRAS containing the G12D

KRAS^WT NEA (KRAS WT)	KRAS^G12D NEA (KRAS G12D)	IC50 (KRAS WT) [nM]	IC50 (KRAS G12D) [nM]	Structure (SMILES)
D (<49% inhibition at 10 μM)	D (<49% inhibition at 10 μM)	–	–	CN(C)C(=O)c1cc2n(n1)CCCN(c1nc(OC[C@@]34CCCN3C[C@H](F)C4)nc3cc(-c4cccc5[nH]nc(C#N)c45)c4nn(C)cc4c13)C2 [Example 83, 5-[4-(3-cyano-1H-indazol-4-yl)-2-methyl-7-[[(2R,8S)-2-fluoro-1,2,3,5,6,7-hexahydropyrrolizin-8-yl]methoxy]pyrazolo[4,3-f]quinazolin-9-yl]-N,N-dimethyl-4,6,7,8-tetrahydropyrazolo[1,5-a][1,4]diazepine-2-carboxamide]
–	–	100 to 10000	100 to 10000	CCc1c(F)ccc2cc(O)cc(-c3cc4nc(OCC56CCCN5CCC6)nc(N5CCCOCC5)c4c4[nH]ncc34)c12 [Example 47, 5-ethyl-6-fluoro-4-[7-(1,2,3,5,6,7-hexahydropyrrolizin-8-ylmethoxy)-9-(1,4-oxazepan-4-yl)-1H-pyrazolo[3,4-f]quinazolin-4-yl]naphthalen-2-ol]
–	–	10 to 100	≤ 10	CCc1c(F)ccc2cc(O)cc(-c3cc4nc(OCC5(CN6CCOCC6)CC5)nc(N5CCCn6nc(C(=O)N(C)C)cc6C5)c4c4cn(C)nc34)c12 [Example 69, 5-[4-(8-ethyl-7-fluoro-3-hydroxy-1-naphthyl)-2-methyl-7-[[1-(morpholinomethyl)cyclopropyl]methoxy]pyrazolo[4,3-f]quinazolin-9-yl]-N,N-dimethyl-4,6,7,8-tetrahydropyrazolo[1,5-a][1,4]diazepine-2-carboxamide]
–	–	10 to 100	≤ 10	CCc1c(F)ccc2cc(O)cc(-c3c(C)c4nc(OC[C@@H]5CCN5)nc(N5CCOCC(C)(O)C5)c4c4cn(C)nc34)c12 (stereo partly drawn) [Example 144, 4-[4-(8-ethyl-7-fluoro-3-hydroxy-1-naphthyl)-2,5-dimethyl-7-[[(2S)-azetidin-2-yl]methoxy]pyrazolo[4,3-f]quinazolin-9-yl]-6-methyl-1,4-oxazepan-6-ol]
–	–	100 to 10000	10 to 100	Cc1cc2[nH]ncc2c(-c2c(C)c3nc(OCC45CCCN4CC(F)C5)nc(N4CCOCC(C)(O)C4)c3c3cn(C)nc23)c1Cl [Example 173, 4-[4-(5-chloro-6-methyl-1H-indazol-4-yl)-2,5-dimethyl-7-[[(2R,8S)-2-fluoro-1,2,3,5,6,7-hexahydropyrrolizin-8-yl]methoxy]pyrazolo[4,3-f]quinazolin-9-yl]-6-methyl-1,4-oxazepan-6-ol]
–	–	≤ 10	≤ 10	CCc1c(F)ccc2cc(O)cc(-c3c(F)c4nc(OCC5(CN6CCCC6)CC5)nc(N5CCOCC(C)(O)C5)c4c4cn(C)nc34)c12 (stereo not drawn) [Example 155, 4-[4-(8-ethyl-7-fluoro-3-hydroxy-1-naphthyl)-5-fluoro-2-methyl-7-[[1-(pyrrolidin-1-ylmethyl)cyclopropyl]methoxy]pyrazolo[4,3-f]quinazolin-9-yl]-6-methyl-1,4-oxazepan-6-ol]
–	–	10 to 100	10 to 100	CCc1c(F)ccc2cc(O)cc(-c3cc4nc(OC[C@@]56CCCN5C[C@H](F)C6)nc(N5CCC(C)(O)C5)c4c4cn(C)nc34)c12 (stereo partly drawn) [Example 116, 1-[4-(8-ethyl-7-fluoro-3-hydroxy-1-naphthyl)-2-methyl-7-[[(2R,8S)-2-fluoro-1,2,3,5,6,7-hexahydropyrrolizin-8-yl]methoxy]pyrazolo[4,3-f]quinazolin-9-yl]-3-methyl-pyrrolidin-3-ol]
–	–	≤ 10	≤ 10	CCc1c(F)ccc2cc(O)cc(-c3c(F)c4nc(OCC5(CN(C)C)CC5)nc(N5CCOC[C@@](C)(O)C5)c4c4cn(C)nc34)c12 [Example 245, (6S)-4-[7-[[1-[(dimethylamino)methyl]cyclopropyl]methoxy]-4-(8-ethyl-7-fluoro-3-hydroxy-1-naphthyl)-5-fluoro-2-methyl-pyrazolo[4,3-f]quinazolin-9-yl]-6-methyl-1,4-oxazepan-6-ol]
–	–	≤ 10	≤ 10	CCc1c(F)ccc2cc(O)cc(-c3cc4nc(OC[C@@]56CCCN5C[C@H](F)C6)nc(N5CCOCC(C)(O)C5)c4c4cn(C)nc34)c12 (stereo partly drawn) [Example 8, 4-[4-(8-ethyl-7-fluoro-3-hydroxy-1-naphthyl)-2-methyl-7-[[(2R,8S)-2-fluoro-1,2,3,5,6,7-hexahydropyrrolizin-8-yl]methoxy]pyrazolo[4,3-f]quinazolin-9-yl]-6-methyl-1,4-oxazepan-6-ol]
–	–	10 to 100	≤ 10	CCc1c(F)ccc2cc(O)cc(-c3c(F)c4nc(OCC5(C#N)CCOC5)nc(N5CCOCC(C)(O)C5)c4c4cn(C)nc34)c12 (stereo not drawn) [Example 164, 3-[[4-(8-ethyl-7-fluoro-3-hydroxy-1-naphthyl)-5-fluoro-9-(6-hydroxy-6-methyl-1,4-oxazepan-4-yl)-2-methyl-pyrazolo[4,3-f]quinazolin-7-yl]oxymethyl]tetrahydrofuran-3-carbonitrile]
–	D (<49% inhibition at 10 μM)	100 to 10000	–	Cn1cc2c(n1)c(-c1cccc3sc(N)c(C#N)c13)cc1nc(OC[C@@]34CCCN3C[C@H](F)C4)nc(N3CCCOCC3)c12 [Example 3, 2-amino-4-[2-methyl-9-(1,4-oxazepan-4-yl)-7-[[(2R,8S)-2-fluoro-1,2,3,5,6,7-hexahydropyrrolizin-8-yl]methoxy]pyrazolo[4,3-f]quinazolin-4-yl]benzothiophene-3-carbonitrile]
–	–	10 to 100	≤ 10	CCc1c(F)ccc2cc(O)cc(-c3cc4nc(OC[C@@H]5CCN5C)nc(N5CCCn6nc(C(=O)N(C)C)cc6C5)c4c4cn(C)nc34)c12 [Example 70]
–	–	100 to 10000	10 to 100	CN(C)C(=O)c1cc2n(n1)CCCN(c1nc(OC[C@@]34CCCN3C[C@H](F)C4)nc3cc(-c4cc(O)ccc4C(F)(F)F)c4nn(C)cc4c13)C2 (racemic) [Example 64, 5-[4-[5-hydroxy-2-(trifluoromethyl)phenyl]-2-methyl-7-[[rac-(2R,8S)-2-fluoro-1,2,3,5,6,7-hexahydropyrrolizin-8-yl]methoxy]pyrazolo[4,3-f]quinazolin-9-yl]-N,N-dimethyl-4,6,7,8-tetrahydropyrazolo[1,5-a][1,4]diazepine-2-carboxamide]
–	–	≤ 10	≤ 10	CCc1c(F)ccc2cc(O)cc(-c3c(C)c4nc(OC[C@@]56CCCN5C[C@H](F)C6)nc(N5CCC[C@@](C)(O)C5)c4c4cn(C)nc34)c12 [Example 95, (3R)-1-[4-(8-ethyl-7-fluoro-3-hydroxy-1-naphthyl)-2,5-dimethyl-7-[[(2R,8S)-2-fluoro-1,2,3,5,6,7-hexahydropyrrolizin-8-yl]methoxy]pyrazolo[4,3-f]quinazolin-9-yl]-3-methyl-piperidin-3-ol]
–	–	100 to 10000	100 to 10000	CCc1c(F)ccc2cc(O)cc(-c3cc4nc(O[C@@H](C)[C@@H]5CCCN5C)nc(N5CCCn6nc(C(=O)N(C)C)cc6C5)c4c4cn(C)nc34)c12 (racemic) [Example 54, 5-[4-(8-ethyl-7-fluoro-3-hydroxy-1-naphthyl)-2-methyl-7-[rac-(1S)-1-[rac-(2S)-1-methylpyrrolidin-2-yl]ethoxy]pyrazolo[4,3-f]quinazolin-9-yl]-N,N-dimethyl-4,6,7,8-tetrahydropyrazolo[1,5-a][1,4]diazepine-2-carboxamide]
–	–	10 to 100	100 to 10000	CCc1c(F)ccc2cc(O)cc(-c3c(F)c4nc(OC[C@@]56CCCN5C[C@H](F)C6)nc(N5C[C@H]6COC[C@@H]6C5)c4c4cn(C)nc34)c12 [Example 175, 5-ethyl-6-fluoro-4-[5-fluoro-2-methyl-9-[(3aS,6aS)-1,3,3a,4,6,6a-hexahydrofuro[3,4-c]pyrrol-5-yl]-7-[[(2R,8S)-2-fluoro-1,2,3,5,6,7-hexahydropyrrolizin-8-yl]methoxy]pyrazolo[4,3-f]quinazolin-4-yl]naphthalen-2-ol]
–	–	10 to 100	10 to 100	C#Cc1c(F)ccc2cc(O)cc(-c3cc4nc(OC[C@@]56CCCN5C[C@H](F)C6)nc(N5CCCC(C)(O)C5)c4c4cn(C)nc34)c12 (stereo partly drawn) [Example 33, 1-[4-(8-ethynyl-7-fluoro-3-hydroxy-1-naphthyl)-2-methyl-7-[[(2R,8S)-2-fluoro-1,2,3,5,6,7-hexahydropyrrolizin-8-yl]methoxy]pyrazolo[4,3-f]quinazolin-9-yl]-3-methyl-piperidin-3-ol]
–	–	≤ 10	≤ 10	CCc1c(F)ccc2cc(O)cc(-c3c(F)c4nc(OCC56CCCN5CCC6)nc(N5CCOCC(C)(O)C5)c4c4cn(C)nc34)c12 (stereo not drawn) [Example 160, 4-[4-(8-ethyl-7-fluoro-3-hydroxy-1-naphthyl)-5-fluoro-7-(1,2,3,5,6,7-hexahydropyrrolizin-8-ylmethoxy)-2-methyl-pyrazolo[4,3-f]quinazolin-9-yl]-6-methyl-1,4-oxazepan-6-ol]
–	–	≤ 10	≤ 10	CCc1c(F)ccc2cc(O)cc(-c3cc4nc(OC[C@@]56CCCN5C[C@H](F)C6)nc(N5CCCn6nc(C(=O)N7CCCC7)cc6C5)c4c4cn(C)nc34)c12 [Example 23, [5-[4-(8-ethyl-7-fluoro-3-hydroxy-1-naphthyl)-2-methyl-7-[[(2R,8S)-2-fluoro-1,2,3,5,6,7-hexahydropyrrolizin-8-yl]methoxy]pyrazolo-[4,3-f]quinazolin-9-yl]4,6,7,8-tetrahydropyrazolo[1,5-a][1,4]diazepin-2-yl]-pyrrolidin-1-yl-methanone]
–	–	100 to 10000	100 to 10000	CCc1c(F)ccc2cc(O)cc(-c3cc4nc(OCC5CCN(C)CC5)nc(N5CCCOCC5)c4c4cn(C)nc34)c12 [Example 31, 5-ethyl-6-fluoro-4-[2-methyl-7-[(1-methyl-4-piperidyl)methoxy]-9-(1,4-oxazepan-4-yl)pyrazolo[4,3-f]quinazolin-4-yl]naphthalen-2-ol]

Structure (SMILES)	KRAS^WT NEA (KRAS WT)	KRAS^G12D NEA (KRAS G12D)	IC50 (KRAS WT) [nM]	IC50 (KRAS G12D) [nM]
CCc1c(F)ccc2cc(O)cc(-c3cc4nc(OC[C@@]56CCCN5C[C@H](F)C6)nc(N5CC6CCC(C5)N6)c4c4cn(C)nc34)c12 [Example 15]	–	–	10 to 100	≤ 10
